Source: the supplement of paper PMC10331698
± gives the standard deviation of the averaged measurements.

Legend:
Test in all cases: level (log10 ratio to DMSO vehicle control); higher = higher biomarker level / cell amount than vehicle control
Conditions in all cases: in DMSO
[1] = compound: O=C(O)C(F)(F)C(F)(F)C(F)(F)C(F)(F)C(F)(F)C(F)(F)C(F)(F)C(F)(F)C(F)(F)C(F)F [11-H-Perfluoroundecanoic acid]
Method: (§1)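 BioMAP Diversity Plus panel of 12 human primary cell co-culture systems (3C, 4H, LPS, SAg, BT, BF4T, BE3C, CASM3C, HDF3CGF, KF3CT, MyoF, Mphg). Compounds were added 1 h before stimulation and left for 24 h (MyoF 48 h; BT 72 h for soluble read-outs or 6 d for IgG). Biomarkers were read by ELISA, cytotoxicity by SRB, PBMC viability and proliferation by Alamar Blue. Each well value was divided by the mean of 8 DMSO control wells on the same plate and log10 transformed; duplicate blinded samples were tested at 4 concentrations.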

[2] = compound: NC(=O)C(F)(F)C(F)(F)C(F)(F)C(F)F
Method: as §1

[3] = compound: O=S(=O)(O)C(F)(F)C(F)(F)C(F)(F)C(F)(F)C(F)(F)C(F)(F)C(F)(F)C(F)(F)C(F)(F)C(F)(F)F [Sodium perfluorodecanesulfonate]
Method: as §1

[4] = compound: FC(F)(F)C(F)(F)C(F)(F)C(F)(F)C(F)(F)C(F)(F)CC1CO1 [3-(Perfluorohexyl)-1,2-epoxypropane]
Method: as §1

[5] = compound: C=C(C)C(=O)OCCC(F)(F)C(F)(F)C(F)(F)C(F)(F)C(F)(F)C(F)(F)F [6:2 Fluorotelomer methacrylate]
Method: as §1

Test System	level (log10) ([1]; 6700 nM)	level (log10) ([1]; 20000 nM)	level (log10) ([2]; 6700 nM)	level (log10) ([2]; 20000 nM)	level (log10) ([2]; 60000 nM)	level (log10) ([3]; 1500 nM)	level (log10) ([3]; 4400 nM)	level (log10) ([3]; 13000 nM)	level (log10) ([3]; 40000 nM)	level (log10) ([4]; 6700 nM)	level (log10) ([4]; 20000 nM)	level (log10) ([4]; 60000 nM)	level (log10) ([5]; 6700 nM)	level (log10) ([5]; 20000 nM)	level (log10) ([5]; 60000 nM)
KF3CT:CXCL10/IP-10	-0.036 ± 0.0057	-0.211 ± 0.011	-0.001 ± 0.0014	-0.001 ± 0.013	0.0025 ± 0.0064	0 ± 0.023	-0.021 ± 0.027	-0.015 ± 0.025	-0.0225 ± 0.0078	0.0285 ± 0.00071	0.0305 ± 0.0035	0.0295 ± 0.0021	0.019 ± 0.0057	0.0245 ± 0.013	0.031 ± 0.0014
MyoF:Collagen III	-0.0405 ± 0.005	-0.475 ± 0.079	0.003	0.0135 ± 0.00071	-0.0065 ± 0.035	0.0125 ± 0.037	0.02 ± 0.0057	-0.0005 ± 0.0035	-0.0455 ± 0.0021	0.007 ± 0.0028	0.003 ± 0.011	0.0065 ± 0.011	0.008 ± 0.027	0.012 ± 0.0057	0.006 ± 0.017
MyoF:CD106/VCAM-1	0.0035 ± 0.0078	-0.152 ± 0.02	-0.0085 ± 0.013	-0.0205 ± 0.013	-0.0235 ± 0.013	0.0005 ± 0.013	-0.0005 ± 0.013	-0.01 ± 0.0014	-0.035 ± 0.0085	0.002 ± 0.013	0.013 ± 0.013	0.0205 ± 0.015	-0.005 ± 0.037	-0.0005 ± 0.036	-0.003 ± 0.0042
lMphg:CD40	-0.0365 ± 0.005	-0.04 ± 0.021	-0.026 ± 0.027	-0.011 ± 0.0071	-0.017 ± 0.0042	-0.0305 ± 0.0078	-0.0285 ± 0.016	-0.0455 ± 0.012	-0.104 ± 0.018	-0.029 ± 0.0071	-0.0195 ± 0.005	-0.005 ± 0.0028	-0.0125 ± 0.016	0.0065 ± 0.023	0.0235 ± 0.005
HDF3CGF:Collagen I	-0.093 ± 0.034	-0.077 ± 0.025	-0.005 ± 0.058	0.005 ± 0.021	0.027 ± 0.02	-0.0095 ± 0.012	-0.01	0.067 ± 0.011	0.0845 ± 0.042	-0.001 ± 0.025	-0.0145 ± 0.012	0.0545 ± 0.04	-0.0655 ± 0.022	-0.0695 ± 0.049	0.0095 ± 0.097
HDF3CGF:CXCL11/I-TAC	-0.127 ± 0.023	-0.2405 ± 0.0021	-0.0035 ± 0.016	-0.002 ± 0.013	-0.002 ± 0.027	-0.0205 ± 0.029	-0.0225 ± 0.0092	0.0785 ± 0.013	0.092 ± 0.0042	0.01 ± 0.016	0.015 ± 0.0028	-0.003 ± 0.027	-0.022 ± 0.021	-0.014 ± 0.0014	-0.018 ± 0.013
3C:CXCL8/IL-8	0.012 ± 0.0014	0.011 ± 0.0071	0.0025 ± 0.016	-0.007 ± 0.0042	0.012 ± 0.0099	0.035 ± 0.035	0.021 ± 0.013	0.03 ± 0.017	0.0725 ± 0.013	-0.002 ± 0.0085	-0.004 ± 0.0014	0.035 ± 0.042	0.018 ± 0.021	0.024 ± 0.016	0.0505 ± 0.018
CASM3C:CCL2/MCP-1	0.0005 ± 0.0035	0.012 ± 0.024	-0.0055 ± 0.013	-0.011 ± 0.018	0.015 ± 0.045	-0.022 ± 0.023	-0.024 ± 0.0028	0.0115 ± 0.026	0.0095 ± 0.0064	0.0035 ± 0.022	0 ± 0.031	0.034 ± 0.028	-0.005 ± 0.0028	-0.011 ± 0.0014	-0.0015 ± 0.021
HDF3CGF:Collagen III	-0.172 ± 0.033	-0.294 ± 0.03	-0.011 ± 0.0042	-0.0155 ± 0.012	-0.0165 ± 0.00071	-0.031 ± 0.042	-0.074 ± 0.025	0.054 ± 0.0014	0.0205 ± 0.052	-0.0075 ± 0.012	-0.005 ± 0.0099	0.0155 ± 0.046	-0.0285 ± 0.044	-0.007 ± 0.041	0.003 ± 0.052
MyoF:MMP-1	-0.076 ± 0.021	-0.027 ± 0.04	-0.018 ± 0.038	-0.034 ± 0.02	0.014 ± 0.028	0.038 ± 0.1	-0.022 ± 0.055	-0.012 ± 0.02	0.0165 ± 0.064	-0.019 ± 0.0085	-0.02 ± 0.017	0.017 ± 0.055	0.043 ± 0.0042	0.045 ± 0.04	0.018 ± 0.038
CASM3C:CD142/Tissue Factor	-0.031 ± 0.0085	-0.0365 ± 0.012	-0.01 ± 0.017	-0.001 ± 0.011	-0.0075 ± 0.00071	0.044 ± 0.025	-0.0045 ± 0.021	0.0295 ± 0.036	0.082 ± 0.016	-0.0085 ± 0.005	-0.0415 ± 0.042	0.005 ± 0.073	-0.0075 ± 0.033	-0.0175 ± 0.029	-0.0035 ± 0.0078
HDF3CGF:CXCL8/IL-8	-0.009 ± 0.0071	-0.003 ± 0.016	-0.0085 ± 0.0035	0.0015 ± 0.0078	0.0045 ± 0.018	-0.0055 ± 0.0035	-0.0095 ± 0.005	0.0165 ± 0.016	0.023 ± 0.0028	-0.0175 ± 0.0035	0.005 ± 0.0028	0.0145 ± 0.0064	0.007 ± 0.018	0.0045 ± 0.015	0.0035 ± 0.011
HDF3CGF:SRB	0.03 ± 0.0014	0.111 ± 0.024	-0.007 ± 0.0042	0.0065 ± 0.016	-0.0035 ± 0.015	0.014 ± 0.0099	-0.0075 ± 0.035	0.104 ± 0.0092	0.198	-0.001 ± 0.031	-0.0035 ± 0.015	-0.006 ± 0.04	0.02 ± 0.0071	0.0315 ± 0.005	0.033 ± 0.013
lMphg:CD106/VCAM-1	-0.0065 ± 0.0035	0.014 ± 0.023	0 ± 0.013	0.006 ± 0.0014	-0.003 ± 0.017	-0.0065 ± 0.012	-0.0215 ± 0.018	-0.021 ± 0.0071	-0.0515 ± 0.0078	0.0025 ± 0.012	0.005 ± 0.013	-0.0015 ± 0.018	-0.024 ± 0.013	-0.007 ± 0.021	-0.021 ± 0.011
lMphg:sIL-10	-0.0875 ± 0.026	-0.0855 ± 0.0064	-0.013 ± 0.023	-0.0715 ± 0.005	-0.021 ± 0.047	-0.0235 ± 0.00071	-0.122 ± 0.019	-0.0595 ± 0.00071	-0.269 ± 0.06	-0.0195 ± 0.029	-0.057 ± 0.0085	-0.059 ± 0.051	-0.01 ± 0.089	-0.0545 ± 0.035	0.0135 ± 0.0035
HDF3CGF:CD106/VCAM-1	-0.085 ± 0.051	-0.234 ± 0.0064	-0.0285 ± 0.019	-0.014 ± 0.024	-0.04 ± 0.078	-0.104 ± 0.06	-0.164 ± 0.042	-0.0895 ± 0.049	-0.0215 ± 0.0092	-0.001 ± 0.025	-0.01 ± 0.0057	-0.057 ± 0.016	-0.0005 ± 0.018	-0.0085 ± 0.0064	-0.0395 ± 0.03
BE3C:Keratin 8/18	-0.0125 ± 0.025	-0.0805 ± 0.019	-0.0045 ± 0.0092	-0.0025 ± 0.005	-0.0185 ± 0.033	0.0095 ± 0.015	0.0065 ± 0.023	-0.0345 ± 0.012	-0.302 ± 0.0071	-0.0045 ± 0.00071	-0.0115 ± 0.00071	0.0015 ± 0.018	-0.051 ± 0.055	-0.0445 ± 0.053	-0.0305 ± 0.035
KF3CT:IL-1alpha	-0.0255 ± 0.00071	0.0105 ± 0.04	-0.0165 ± 0.011	-0.0265 ± 0.005	0.008 ± 0.045	0.0125 ± 0.018	-0.0295 ± 0.005	-0.0545 ± 0.0035	-0.045 ± 0.02	-0.0185 ± 0.0078	0.0085 ± 0.018	0.0015 ± 0.0021	-0.033 ± 0.025	-0.0395 ± 0.029	-0.0335 ± 0.026
LPS:CCL2/MCP-1	-0.009 ± 0.0085	-0.022 ± 0.0099	0.009 ± 0.045	0.005 ± 0.042	0.03 ± 0.013	-0.0165 ± 0.011	-0.041 ± 0.0085	-0.0235 ± 0.033	-0.0655 ± 0.077	-0.012 ± 0.011	-0.0055 ± 0.019	0.0025 ± 0.0078	-0.007 ± 0.05	-0.014 ± 0.034	-0.043
